Test results as given in ChEMBL document CHEMBL3399937, “(18)F-AmBF3-MJ9: a novel radiofluorinated bombesin derivative for prostate cancer imaging” (Bioorg Med Chem, 2015).

How the values were obtained:
Settings in all cases: in vivo
[1] = system: Blood; test: Biodistribution in blood of NSG mouse xenografted with human PC-3 tumor at 0.37 to 0.74 MBq, iv after 1 hr by gamma counting analysis in presence of BAY86-7548; assay type: ADME, organism-based
[2] = Biodistribution in fat of NSG mouse xenografted with human PC-3 tumor at 0.37 to 0.74 MBq, iv after 1 hr by gamma counting analysis in presence of BAY86-7548; assay type: ADME, organism-based, Adipose tissue
[3] = system: Mus musculus; test: Biodistribution in seminal gland of NSG mouse xenografted with human PC-3 tumor at 0.37 to 0.74 MBq, iv after 1 hr by gamma counting analysis in presence of BAY86-7548; assay type: ADME, organism-based
[4] = system: Mus musculus; test: Biodistribution in testis of NSG mouse xenografted with human PC-3 tumor at 0.37 to 0.74 MBq, iv after 1 hr by gamma counting analysis in presence of BAY86-7548; assay type: ADME, organism-based
[5] = system: Intestine; test: Biodistribution in intestine of NSG mouse xenografted with human PC-3 tumor at 0.37 to 0.74 MBq, iv after 1 hr by gamma counting analysis in presence of BAY86-7548; assay type: ADME, organism-based
[6] = system: Spleen; test: Biodistribution in spleen of NSG mouse xenografted with human PC-3 tumor at 0.37 to 0.74 MBq, iv after 1 hr by gamma counting analysis in presence of BAY86-7548; assay type: ADME, organism-based
[7] = system: Liver; test: Biodistribution in liver of NSG mouse xenografted with human PC-3 tumor at 0.37 to 0.74 MBq, iv after 1 hr by gamma counting analysis in presence of BAY86-7548; assay type: ADME, organism-based
[8] = system: Pancreas; test: Biodistribution in pancreas of NSG mouse xenografted with human PC-3 tumor at 0.37 to 0.74 MBq, iv after 1 hr by gamma counting analysis in presence of BAY86-7548; assay type: ADME, organism-based
[9] = system: Mus musculus; test: Biodistribution in adrenal gland of NSG mouse xenografted with human PC-3 tumor at 0.37 to 0.74 MBq, iv after 1 hr by gamma counting analysis in presence of BAY86-7548; assay type: ADME, organism-based
[10] = system: Kidney; test: Biodistribution in kidney of NSG mouse xenografted with human PC-3 tumor at 0.37 to 0.74 MBq, iv after 1 hr by gamma counting analysis in presence of BAY86-7548; assay type: ADME, organism-based
[11] = system: Lung; test: Biodistribution in lung of NSG mouse xenografted with human PC-3 tumor at 0.37 to 0.74 MBq, iv after 1 hr by gamma counting analysis in presence of BAY86-7548; assay type: ADME, organism-based
[12] = system: Heart; test: Biodistribution in heart of NSG mouse xenografted with human PC-3 tumor at 0.37 to 0.74 MBq, iv after 1 hr by gamma counting analysis in presence of BAY86-7548; assay type: ADME, organism-based
[13] = system: Tumour; test: Biodistribution in tumor of NSG mouse xenografted with human PC-3 tumor at 0.37 to 0.74 MBq, iv after 1 hr by gamma counting analysis in presence of BAY86-7548; assay type: ADME, organism-based, Neoplasm
[14] = system: Muscle tissue; test: Biodistribution in muscle of NSG mouse xenografted with human PC-3 tumor at 0.37 to 0.74 MBq, iv after 1 hr by gamma counting analysis in presence of BAY86-7548; assay type: ADME, organism-based
[15] = system: Bone; test: Biodistribution in bone of NSG mouse xenografted with human PC-3 tumor at 0.37 to 0.74 MBq, iv after 1 hr by gamma counting analysis in presence of BAY86-7548; assay type: ADME, organism-based, Bone element
[16] = system: Brain; test: Biodistribution in brain of NSG mouse xenografted with human PC-3 tumor at 0.37 to 0.74 MBq, iv after 1 hr by gamma counting analysis in presence of BAY86-7548; assay type: ADME, organism-based
[17] = system: Blood; test: Biodistribution in blood of NSG mouse xenografted with human PC-3 tumor at 0.37 to 0.74 MBq, iv after 2 hrs by gamma counting analysis; assay type: ADME, organism-based
[18] = Biodistribution in fat of NSG mouse xenografted with human PC-3 tumor at 0.37 to 0.74 MBq, iv after 2 hrs by gamma counting analysis; assay type: ADME, organism-based, Adipose tissue
[19] = system: Mus musculus; test: Biodistribution in seminal gland of NSG mouse xenografted with human PC-3 tumor at 0.37 to 0.74 MBq, iv after 2 hrs by gamma counting analysis; assay type: ADME, organism-based
[20] = system: Mus musculus; test: Biodistribution in testis of NSG mouse xenografted with human PC-3 tumor at 0.37 to 0.74 MBq, iv after 2 hrs by gamma counting analysis; assay type: ADME, organism-based
[21] = system: Intestine; test: Biodistribution in intestine of NSG mouse xenografted with human PC-3 tumor at 0.37 to 0.74 MBq, iv after 2 hrs by gamma counting analysis; assay type: ADME, organism-based
[22] = system: Spleen; test: Biodistribution in spleen of NSG mouse xenografted with human PC-3 tumor at 0.37 to 0.74 MBq, iv after 2 hrs by gamma counting analysis; assay type: ADME, organism-based
[23] = system: Liver; test: Biodistribution in liver of NSG mouse xenografted with human PC-3 tumor at 0.37 to 0.74 MBq, iv after 2 hrs by gamma counting analysis; assay type: ADME, organism-based
[24] = system: Pancreas; test: Biodistribution in pancreas of NSG mouse xenografted with human PC-3 tumor at 0.37 to 0.74 MBq, iv after 2 hrs by gamma counting analysis; assay type: ADME, organism-based
[25] = system: Mus musculus; test: Biodistribution in adrenal gland of NSG mouse xenografted with human PC-3 tumor at 0.37 to 0.74 MBq, iv after 2 hrs by gamma counting analysis; assay type: ADME, organism-based
[26] = system: Kidney; test: Biodistribution in kidney of NSG mouse xenografted with human PC-3 tumor at 0.37 to 0.74 MBq, iv after 2 hrs by gamma counting analysis; assay type: ADME, organism-based
[27] = system: Lung; test: Biodistribution in lung of NSG mouse xenografted with human PC-3 tumor at 0.37 to 0.74 MBq, iv after 2 hrs by gamma counting analysis; assay type: ADME, organism-based
[28] = system: Heart; test: Biodistribution in heart of NSG mouse xenografted with human PC-3 tumor at 0.37 to 0.74 MBq, iv after 2 hrs by gamma counting analysis; assay type: ADME, organism-based
[29] = system: Tumour; test: Biodistribution in tumor of NSG mouse xenografted with human PC-3 tumor at 0.37 to 0.74 MBq, iv after 2 hrs by gamma counting analysis; assay type: ADME, organism-based, Neoplasm
[30] = system: Muscle tissue; test: Biodistribution in muscle of NSG mouse xenografted with human PC-3 tumor at 0.37 to 0.74 MBq, iv after 2 hrs by gamma counting analysis; assay type: ADME, organism-based
[31] = system: Bone; test: Biodistribution in bone of NSG mouse xenografted with human PC-3 tumor at 0.37 to 0.74 MBq, iv after 2 hrs by gamma counting analysis; assay type: ADME, organism-based, Bone element
[32] = system: Brain; test: Biodistribution in brain of NSG mouse xenografted with human PC-3 tumor at 0.37 to 0.74 MBq, iv after 2 hrs by gamma counting analysis; assay type: ADME, organism-based

## CC(C)C[C@H](NC(=O)C[C@H](O)[C@H](CC(C)C)NC(=O)[C@H](Cc1cnc[nH]1)NC(=O)CNC(=O)[C@@H](NC(=O)[C@H](C)NC(=O)[C@H](Cc1c[nH]c2ccccc12)NC(=O)[C@H](CCC(N)=O)NC(=O)[C@@H](Cc1ccccc1)NC(=O)CN1CCC(NC(=O)Cn2cc(C[N+](C)(C)C[B-](F)(F)[17F])nn2)CC1)C(C)C)C(N)=O
[1]
  Drug uptake: 0.48 % ID/g
[2]
  Drug uptake: 0.12 % ID/g
[3]
  Drug uptake: 0.12 % ID/g
[4]
  Drug uptake: 0.25 % ID/g
[5]
  Drug uptake: 0.25 % ID/g
[6]
  Drug uptake: 0.32 % ID/g
[7]
  Drug uptake: 1.05 % ID/g
[8]
  Drug uptake: 0.42 % ID/g
[9]
  Drug uptake: 0.21 % ID/g
[10]
  Drug uptake: 6.66 % ID/g
[11]
  Drug uptake: 0.71 % ID/g
[12]
  Drug uptake: 0.18 % ID/g
[13]
  Drug uptake: 0.54 % ID/g
[14]
  Drug uptake: 0.14 % ID/g
[15]
  Drug uptake: 0.25 % ID/g
[16]
  Drug uptake: 0.03 % ID/g
[17]
  Drug uptake: 0.32 % ID/g
[18]
  Drug uptake: 0.05 % ID/g
[19]
  Drug uptake: 0.15 % ID/g
[20]
  Drug uptake: 0.13 % ID/g
[21]
  Drug uptake: 8.67 % ID/g
[22]
  Drug uptake: 0.26 % ID/g
[23]
  Drug uptake: 0.33 % ID/g
[24]
  Drug uptake: 4.75 % ID/g
[25]
  Drug uptake: 0.29 % ID/g
[26]
  Drug uptake: 1.46 % ID/g
[27]
  Drug uptake: 0.4 % ID/g
[28]
  Drug uptake: 0.06 % ID/g
[29]
  Drug uptake: 2.2 % ID/g
[30]
  Drug uptake: 0.03 % ID/g
[31]
  Drug uptake: 0.18 % ID/g
[32]
  Drug uptake: 0.01 % ID/g
